Data published in ChEMBL document CHEMBL1201862, “PubChem BioAssay data set” (2004).
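Dose response: 5 concentrations. Exposure: 48 h. Format: 96-well plates. Endpoint: linear interpolation; highest concentration if not reached. Abbreviation: GI50, concentration required for 50% inhibition of growth.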 Active and inactive are the calls of the source. Rule as the data show it: active = GI50 up to about 1.1 µM and inactive = higher.

Tests used:
Experiment in all cases: NCI tumour cell line growth inhibition, 48 h
CCRF-CEM = system: CCRF-CEM
IGROV-1 = system: IGROV-1
DMS-273 = system: DMS-273
LOX IMVI = system: LOX IMVI
RPMI-8226 = system: RPMI-8226
SK-MEL-2 = system: SK-MEL-2
K562 = system: K562
786-0 = system: 786-0
NCI-H522 = system: NCI-H522
HL-60 = system: HL-60
TK-10 = system: TK-10
UACC-62 = system: UACC-62
KM-20L2 = system: KM-20L2
HOP-18 = system: HOP-18
HCT-15 = system: HCT-15
SN12C = system: SN12C
OVCAR-5 = system: OVCAR-5
LXFL 529 = system: LXFL 529
KM12 = system: KM12
SK-OV-3 = system: SK-OV-3
COLO 205 = system: COLO 205
ACHN = system: ACHN
SNB-75 = system: SNB-75
SW-620 = system: SW-620
U-251 = system: U-251
SF-539 = system: SF-539
HT-29 = system: HT-29
SK-MEL-5 = system: SK-MEL-5
UO-31 = system: UO-31
MOLT-4 = system: MOLT-4
UACC-257 = system: UACC-257
M14 = system: M14
NCI-H460 = system: NCI-H460
A549 = system: A549
Malme-3M = system: Malme-3M
EKVX = system: EKVX
DMS-114 = system: DMS-114
OVCAR-8 = system: OVCAR-8
RXF 393 = system: RXF 393
SR = system: SR
DLD-1 = system: DLD-1
NCI-H226 = system: NCI-H226
NCI-H23 = system: NCI-H23
HCT-116 = system: HCT-116
OVCAR-3 = system: OVCAR-3
HOP-62 = system: HOP-62
SK-MEL-28 = system: SK-MEL-28
M19-MEL = system: M19-MEL
A498 = system: A498
SNB-19 = system: SNB-19
XF498 = system: XF498
SF-295 = system: SF-295
HCC 2998 = system: HCC 2998
HOP-92 = system: HOP-92
SF-268 = system: SF-268

Measured: GI50

O=[N+]([O-])c1ccc(C[P+](c2ccccc2)(c2ccccc2)c2ccccc2)cc1
inactive: CCRF-CEM 80 µM | IGROV-1 25.4 µM | DMS-273 37.8 µM | LOX IMVI 42 µM | RPMI-8226 26.2 µM | SK-MEL-2 25.4 µM | K562 70.8 µM | 786-0 > 100 µM | NCI-H522 32.7 µM | HL-60 27.2 µM | TK-10 56 µM | UACC-62 32.1 µM | KM-20L2 99.3 µM | HOP-18 79.8 µM | SN12C > 100 µM | OVCAR-5 > 100 µM | LXFL 529 12.5 µM | KM12 52.5 µM | SK-OV-3 > 100 µM | COLO 205 25.4 µM | ACHN > 100 µM | SNB-75 35.9 µM | SW-620 88.3 µM | U-251 31.7 µM | SF-539 67.8 µM | HT-29 32.9 µM | SK-MEL-5 57 µM | UO-31 > 100 µM | MOLT-4 > 100 µM | UACC-257 16.1 µM | M14 56.9 µM | NCI-H460 71.3 µM | A549 > 100 µM | Malme-3M 37.8 µM | EKVX > 100 µM | DMS-114 23.2 µM | OVCAR-8 73.1 µM | RXF 393 11.9 µM | SR 38.4 µM | DLD-1 50.4 µM | NCI-H226 > 100 µM | NCI-H23 83.8 µM | HCT-116 36.5 µM | OVCAR-3 42.8 µM | HOP-62 > 100 µM | SK-MEL-28 35.1 µM | M19-MEL 24.2 µM | A498 > 100 µM | SNB-19 > 100 µM | SF-295 > 100 µM | HCC 2998 36.1 µM
active: XF498 < 0.01 µM
81.5 µM: HCT-15

COc1cc(C2C(Cl)C(=O)N2NC(=O)c2ccc(NC(C)=O)cc2)cc(OC)c1OC (stereo not drawn)
inactive: CCRF-CEM > 100 µM | IGROV-1 > 100 µM | HOP-92 > 100 µM | RPMI-8226 > 100 µM | SK-MEL-2 > 100 µM | K562 > 100 µM | NCI-H522 > 100 µM | HL-60 > 100 µM | TK-10 > 100 µM | UACC-62 > 100 µM | HOP-18 > 100 µM | OVCAR-5 > 100 µM | LXFL 529 > 100 µM | KM12 > 100 µM | SK-OV-3 > 100 µM | COLO 205 > 100 µM | ACHN > 10 µM | SNB-75 > 100 µM | SW-620 > 100 µM | U-251 > 100 µM | SF-539 > 100 µM | HT-29 > 100 µM | SK-MEL-5 > 100 µM | UO-31 > 100 µM | MOLT-4 > 100 µM | UACC-257 > 100 µM | NCI-H460 > 100 µM | A549 > 100 µM | Malme-3M > 100 µM | SF-268 > 100 µM | DLD-1 > 100 µM | NCI-H226 > 100 µM | NCI-H23 > 100 µM | HCT-116 > 100 µM | OVCAR-3 > 100 µM | HOP-62 > 100 µM | SK-MEL-28 > 100 µM | M19-MEL > 100 µM | SNB-19 > 100 µM | SF-295 > 100 µM
